Target: Beta-3 Adrenergic Receptor (Homo sapiens (Human), UniProt P13945)
Experiment: Homogeneous Time-Resolved Fluorescence (HTRF) cAMP antagonist assay, IC50 determination
Assay type: cell-based
Conditions: CHO-K1 cells stably expressing recombinant receptor, isoproterenol at EC90
Procedure: HTRF cAMP assays were performed according to manufacturer's instructions (Cisbio, cAMP Dynamic 2 Assay Kit; #62AM4PEJ). CHO-K1 cells stably expressing recombinant receptor were harvested and suspended in warm PBS to make a 300,000 cells/mL stock. This cell suspension was dispensed into 384 well assay plates (PerkinElmer ProxiPlate #6008280) at 5 μL per well (1500 cells/well) along with a cAMP standard curve.
Compounds were dissolved and serially diluted (5-fold) in DMSO to generate a 10-point dose response stock. The stock was then diluted 100-fold in assay buffer (PBS containing 1 mM IBMX) before a volume of 2.5 μL was added to the cells (the final, top concentration of compound in the dose-response is typically 10 or 100 μM). After a brief incubation, 2.5 μL of isoproterenol stock, prepared at a concentration 4 times its EC90 at the receptor of interest, was added to the wells. The EC90 for isoproterenol, a beta-adrenergic agonist, was determined in separate experiments using standard methods to measure agonist potencies.
Following a 1-hour incubation at room temperature, 5 μL of cAMP-D2 Reagent diluted in Lysis Buffer was added to each well followed by 5 μL of Cryptate Reagent. Plates were further incubated at room temperature for 1 hour prior to reading. Time resolved fluorescence measurements were collected on a suitable, HTRF-capable plate reader.
Counts from the plate reader were fit to the cAMP standard curve on the assay plate in order to determine cAMP concentrations in each well, and these values were used to construct dose-response curves to obtain IC50 values.

Chain of Beta-3 Adrenergic Receptor (P13945 whole entry, species assumed): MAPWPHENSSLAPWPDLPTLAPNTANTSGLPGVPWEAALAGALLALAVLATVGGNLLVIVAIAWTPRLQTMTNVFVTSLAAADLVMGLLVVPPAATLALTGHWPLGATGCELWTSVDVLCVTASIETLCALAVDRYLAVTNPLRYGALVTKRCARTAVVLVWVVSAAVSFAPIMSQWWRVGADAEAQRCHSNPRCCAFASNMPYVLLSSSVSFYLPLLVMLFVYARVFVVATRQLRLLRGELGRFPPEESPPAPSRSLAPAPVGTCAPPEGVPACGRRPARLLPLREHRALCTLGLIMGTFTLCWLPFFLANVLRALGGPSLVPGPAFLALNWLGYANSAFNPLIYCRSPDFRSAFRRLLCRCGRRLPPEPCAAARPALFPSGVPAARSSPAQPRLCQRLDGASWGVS

Q: CNS(=O)(=O)c1cccc(OC[C@@H](O)CN[C@H]2COC3(CCN(S(=O)(=O)c4ccc5c(c4)N(C)CCO5)CC3)C2)c1 [Compound 300, 3-((S)-2-hydroxy-3-((R)-8-(4-methyl-3,4-dihydro-2H-benzo[b][1,4]oxazin-6-ylsulfonyl)-1-oxa-8-azaspiro[4.5]decan-3-ylamino)propoxy)-N-methylbenzenesulfonamide] was tested. Which IC50 did it give?
A: 10.9 nM

Q: CNS(=O)(=O)c1cccc(OC[C@@H](O)CNC2COC3(CCN(S(=O)(=O)c4cccc(C)c4)CC3)C2)c1 (stereo partly drawn) [Compound 21, 3-((2S)-2-hydroxy-3-(8-(m-tolylsulfonyl)-1-oxa-8-azaspiro[4.5]decan-3-ylamino)propoxy)-N-methylbenzenesulfonamide] was tested. Which IC50 did it give?
A: 13.4 nM

Q: How did the IC50 turn out when CNS(=O)(=O)c1cccc(OC[C@@H](O)CNC2COC3(CCN(S(=O)(=O)c4cc(F)ccc4Cl)CC3)C2)c1 (stereo partly drawn) [Compound 202, 3-((2S)-3-(8-(2-chloro-5-fluorophenylsulfonyl)-1-oxa-8-azaspiro[4.5]decan-3-ylamino)-2-hydroxypropoxy)-N-methylbenzenesulfonamide] was run?
A: 10.8 nM

Q: CNS(=O)(=O)c1cccc(OC[C@@H](O)CNC2COC3(CCN(S(=O)(=O)c4ccc(-c5ccccc5)s4)CC3)C2)c1 (stereo partly drawn) [Compound 187, 3-((2S)-2-hydroxy-3-(8-(5-phenylthiophen-2-ylsulfonyl)-1-oxa-8-azaspiro[4.5]decan-3-ylamino)propoxy)-N-methylbenzenesulfonamide] was tested. Which IC50 did it give?
A: 7.72 nM

Q: Which IC50 does the source give for CN(C)S(=O)(=O)c1cccc(OC[C@@H](O)CNC2COC3(CCN(S(=O)(=O)c4cccc(-c5ccc(CC#N)cc5)c4)CC3)C2)c1 (stereo partly drawn) [Compound 277, 3-((2S)-3-(8-(4′-(cyanomethyl)biphenyl-3-ylsulfonyl)-1-oxa-8-azaspiro[4.5]decan-3-ylamino)-2-hydroxypropoxy)-N,N-dimethylbenzenesulfonamide] here?
A: 46.7 nM

Q: For CN(C)S(=O)(=O)c1cccc(OC[C@@H](O)CNC2COC3(CCN(S(=O)(=O)c4cccc(-c5ccc(CN)cc5)c4)CC3)C2)c1 (stereo partly drawn) [Compound 273, 3-((2S)-3-(8-(4′-(aminomethyl)biphenyl-3-ylsulfonyl)-1-oxa-8-azaspiro[4.5]decan-3-ylamino)-2-hydroxypropoxy)-N,N-dimethylbenzenesulfonamide], which IC50 is on record?
A: 15.5 nM

Q: For CNS(=O)(=O)c1cccc(OC[C@@H](O)CN[C@@H]2COC3(CCN(S(=O)(=O)c4cnc5c(c4)N(C)CCO5)CC3)C2)c1 [Compound 413, 3-((S)-2-hydroxy-3-((S)-8-(1-methyl-2,3-dihydro-1H-pyrido[2,3-b][1,4]oxazin-7-ylsulfonyl)-1-oxa-8-azaspiro[4.5]decan-3-ylamino)propoxy)-N-methylbenzenesulfonamide], which IC50 is on record?
A: 14 nM

Q: O=S(=O)(NC[C@H](O)CO)c1cccc(OC[C@@H](O)CNC2COC3(CCN(S(=O)(=O)c4ccc5ccccc5c4)CC3)C2)c1 (stereo partly drawn) [Compound 166, N—((S)-2,3-dihydroxypropyl)-3-((2S)-2-hydroxy-3-(8-(naphthalen-2-ylsulfonyl)-1-oxa-8-azaspiro[4.5]decan-3-ylamino)propoxy)benzenesulfonamide] was tested. Which IC50 did it give?
A: 143 nM

Q: How did the IC50 turn out when C[C@H](CO)NS(=O)(=O)c1cccc(OC[C@@H](O)CNC2COC3(CCN(S(=O)(=O)c4ccc5ccccc5c4)CC3)C2)c1 (stereo partly drawn) [Compound 96, 3-((2S)-2-hydroxy-3-(8-(naphthalen-2-ylsulfonyl)-1-oxa-8-azaspiro[4.5]decan-3-ylamino)propoxy)-N—((R)-1-hydroxypropan-2-yl)benzenesulfonamide] was run?
A: 42.1 nM

Q: Which IC50 does the source give for CNS(=O)(=O)c1cccc(OC[C@@H](O)CNC2COC3(CCN(S(=O)(=O)c4cccc(-c5cnn(Cc6ccccc6)c5)c4)CC3)C2)c1 (stereo partly drawn) [Compound 77, 3-((2S)-3-(8-(3-(1-benzyl-1H-pyrazol-4-yl)phenylsulfonyl)-1-oxa-8-azaspiro[4.5]decan-3-ylamino)-2-hydroxypropoxy)-N-methylbenzenesulfonamide] here?
A: 17.5 nM

Q: Which IC50 does the source give for Cc1noc(C)c1S(=O)(=O)N1CCC2(CC1)CC(NC[C@H](O)COc1cccc(S(=O)(=O)N(C)C)c1)CO2 (stereo partly drawn) [Compound 254, 3-((2S)-3-(8-(3,5-dimethylisoxazol-4-ylsulfonyl)-1-oxa-8-azaspiro[4.5]decan-3-ylamino)-2-hydroxypropoxy)-N,N-dimethylbenzenesulfonamide] here?
A: 97.3 nM

Q: CNS(=O)(=O)c1cccc(OC[C@@H](O)CN[C@H]2COC3(CCN(S(=O)(=O)c4cnc5c(c4)N(CCOC)CCO5)CC3)C2)c1 [Compound 471, 3-((S)-2-hydroxy-3-((R)-8-(1-(2-methoxyethyl)-2,3-dihydro-1H-pyrido[2,3-b][1,4]oxazin-7-ylsulfonyl)-1-oxa-8-azaspiro[4.5]decan-3-ylamino)propoxy)-N-methylbenzenesulfonamide] was tested. Which IC50 did it give?
A: 69 nM

Q: With CNS(=O)(=O)c1cccc(OC[C@@H](O)CNC2COC3(CCN(S(=O)(=O)c4cc(OC)cnc4C)CC3)C2)c1 (stereo partly drawn) [Compound 397, 3-((2S)-2-hydroxy-3-(8-(5-methoxy-2-methylpyridin-3-ylsulfonyl)-1-oxa-8-azaspiro[4.5]decan-3-ylamino)propoxy)-N-methylbenzenesulfonamide] as the compound, how does the IC50 read?
A: 115 nM

Q: For CN(C1CC1)S(=O)(=O)c1cccc(OC[C@@H](O)CNC2COC3(CCN(S(=O)(=O)c4ccc5ccccc5c4)CC3)C2)c1 (stereo partly drawn) [Compound 90, N-cyclopropyl-3-((2S)-2-hydroxy-3-(8-(naphthalen-2-ylsulfonyl)-1-oxa-8-azaspiro[4.5]decan-3-ylamino)propoxy)-N-methylbenzenesulfonamide], which IC50 is on record?
A: 49.2 nM

Q: With CNS(=O)(=O)c1cccc(OC[C@@H](O)CNC2COC3(CCN(S(=O)(=O)c4ccc(OC)cc4C)CC3)C2)c1 (stereo partly drawn) [Compound 236, 3-((2S)-2-hydroxy-3-(8-(4-methoxy-2-methylphenylsulfonyl)-1-oxa-8-azaspiro[4.5]decan-3-ylamino)propoxy)-N-methylbenzenesulfonamide] as the compound, how does the IC50 read?
A: 54.9 nM

Q: For CNS(=O)(=O)c1cccc(OC[C@@H](O)CN[C@H]2COC3(CCN(S(=O)(=O)c4cc5nc[nH]c5nc4C)CC3)C2)c1 [Compound 516, 3-((S)-2-hydroxy-3-((R)-8-(5-methyl-3H-imidazo[4,5-b]pyridin-6-ylsulfonyl)-1-oxa-8-azaspiro[4.5]decan-3-ylamino)propoxy)-N-methylbenzenesulfonamide], which IC50 is on record?
A: 166 nM

Q: Which IC50 does the source give for CNS(=O)(=O)c1cccc(OC[C@@H](O)CNC2COC3(CCN(S(=O)(=O)c4ccc5c(Cl)cccc5c4)CC3)C2)c1 (stereo partly drawn) [Compound 223, 3-((2S)-3-(8-(5-chloronaphthalen-2-ylsulfonyl)-1-oxa-8-azaspiro[4.5]decan-3-ylamino)-2-hydroxypropoxy)-N-methylbenzenesulfonamide] here?
A: 13.6 nM

Q: For CN1CCOc2ncc(S(=O)(=O)N3CCC4(CC3)C[C@@H](NC[C@H](O)COc3cccc(S(=O)(=O)NCCF)c3)CO4)cc21 [Compound 457, N-(2-fluoroethyl)-3-((S)-2-hydroxy-3-((R)-8-(1-methyl-2,3-dihydro-1H-pyrido[2,3-b][1,4]oxazin-7-ylsulfonyl)-1-oxa-8-azaspiro[4.5]decan-3-ylamino)propoxy)benzenesulfonamide], which IC50 is on record?
A: 29.6 nM

Q: CNS(=O)(=O)c1cccc(OC[C@@H](O)CN[C@H]2COC3(CCN(S(=O)(=O)c4cnc5c(Cl)cn(C)c5c4)CC3)C2)c1 [Compound 527, 3-((S)-3-((R)-8-(3-chloro-1-methyl-1H-pyrrolo[3,2-b]pyridin-6-ylsulfonyl)-1-oxa-8-azaspiro[4.5]decan-3-ylamino)-2-hydroxypropoxy)-N-methylbenzenesulfonamide] was tested. Which IC50 did it give?
A: 9.03 nM

Q: Which IC50 does the source give for CNS(=O)(=O)c1cccc(OC[C@@H](O)CNC2COC3(CCN(S(=O)(=O)c4ccc5cn[nH]c5c4)CC3)C2)c1 (stereo partly drawn) [Compound 328, 3-((2S)-3-(8-(1H-indazol-6-ylsulfonyl)-1-oxa-8-azaspiro[4.5]decan-3-ylamino)-2-hydroxypropoxy)-N-methylbenzenesulfonamide] here?
A: 37 nM

Q: With O=S(=O)(NCC1CCCNC1)c1cccc(OC[C@@H](O)CNC2COC3(CCN(S(=O)(=O)c4ccc5ccccc5c4)CC3)C2)c1 (stereo partly drawn) [Compound 168, 3-((2S)-2-hydroxy-3-(8-(naphthalen-2-ylsulfonyl)-1-oxa-8-azaspiro[4.5]decan-3-ylamino)propoxy)-N-(piperidin-3-ylmethyl)benzenesulfonamide] as the compound, how does the IC50 read?
A: 1470 nM

Q: For CNS(=O)(=O)c1cccc(OC[C@@H](O)CNC2COC3(CCN(S(=O)(=O)c4cc(C)cc(F)c4)CC3)C2)c1 (stereo partly drawn) [Compound 179, 3-((2S)-3-(8-(3-fluoro-5-methylphenylsulfonyl)-1-oxa-8-azaspiro[4.5]decan-3-ylamino)-2-hydroxypropoxy)-N-methylbenzenesulfonamide], which IC50 is on record?
A: 8.15 nM

Q: For O=S(=O)(NC1CCOCC1)c1cccc(OC[C@@H](O)CNC2COC3(CCN(S(=O)(=O)c4ccc5ccccc5c4)CC3)C2)c1 (stereo partly drawn) [Compound 50, 3-((2S)-2-hydroxy-3-(8-(naphthalen-2-ylsulfonyl)-1-oxa-8-azaspiro[4.5]decan-3-ylamino)propoxy)-N-(tetrahydro-2H-pyran-4-yl)benzenesulfonamide], which IC50 is on record?
A: 87.2 nM

Q: CNS(=O)(=O)c1cccc(OC[C@@H](O)CN[C@H]2COC3(CCN(S(=O)(=O)c4cnc5[nH]cc(C)c5c4)CC3)C2)c1 [Compound 512, 3-((S)-2-hydroxy-3-((R)-8-(3-methyl-1H-pyrrolo[2,3-b]pyridin-5-ylsulfonyl)-1-oxa-8-azaspiro[4.5]decan-3-ylamino)propoxy)-N-methylbenzenesulfonamide] was tested. Which IC50 did it give?
A: 6.62 nM
